System: Caco-2
Experiment: Monolayer Caco-2 permeability experiment
Format: in vitro ADME

| Compound | cellular permeability (Caco-2) |
| --- | --- |
| C=CC(=O)Nc1ccc(OC)c(Nc2cc(-c3[nH]c(SC)nc3-c3cccc(NC(=O)c4c(F)ccc(O)c4CN4C(=O)c5ccccc5C4=O)c3)ccn2)c1 [Compound 1, N-(3-(5-(2-((5-acrylamido-2-methoxyphenyl)amino)pyridin-4-yl)-2-(methylthio)-1H-imidazol-4-yl)phenyl)-2-((1,3-dioxoisoindolin-2-yl)methyl)-6-fluoro-3-hydroxybenzamide] | limited cellular permeability |
| CSc1nc(-c2cccc(NC(=O)c3c(F)ccc(O)c3CN3C(=O)c4ccccc4C3=O)c2)c(-c2ccnc(NC(C)=O)c2)[nH]1 [Compound 2c, N-(3-(5-(2-acetamidopyridin-4-yl)-2-(methylthio)-1H-imidazol-4-yl)phenyl)-2-((1,3-dioxoisoindolin-2-yl)methyl)-6-fluoro-3-hydroxybenzamide] | limited cellular permeability |

Reference: publication PMC9255384 (Journal of medicinal chemistry, 2021)
